Measurements as given in paper PMC6368403, “Identification of a bilirubin receptor that may mediate a component of cholestatic itch” (eLife, 2019).
“And” between values parts separate entries of the source, which are not always exact repeats. Equal values may be shown once.

Tests used:
[1] = tested on: murine peritoneal mast cells; experiment: Mouse peritoneal mast cell histamine release assay; format: cell-based; conditions: 100 µM bilirubin
Method: Adult male mice 8–12 weeks of age were sacrificed through CO2 inhalation. A total of 25 mL of mast cell dissociation media (MCDM; HBSS with 3% fetal bovine serum and 10 mM HEPES, pH 7.2) was chilled on ice before being used to make two sequential peritoneal lavages. Lavages were combined and spun at 200 g. […] Mast cells were recovered in the pellet. Mast cells were re-suspended in DMEM with 10% fetal bovine serum (FBS) and 25 ng/mL recombinant mouse stem cell factor (Sigma). Mast cells were purified as described and allowed to recover for 2 hr at 37°C. Cells were then seeded in 96-well plates coated with […] fibronectin at 300 cells/well. Plates were incubated at 37°C for 45 min before assay. For the assay, all compounds tested were diluted in CIB. Five minutes after compound addition, supernatant was aspirated and frozen at −80°C until histamine levels were determined with an HTRF histamine assay kit (Cisbio Assays) according to the manufacturer’s instructions.

[2] = tested on: small-diameter DRG sensory neurons; experiment: Whole-cell current-clamp recording of DRG neurons; format: cell-based, mouse; conditions: 50 µM bilirubin
Method: DRG neurons from all spinal levels were collected in cold DH10 media (90% Dulbecco’s modified Eagle’s medium (DMEM)/F-12, 10% FBS, penicillin (100 U/mL), and streptomycin (100 μg/mL)). DRGs were digested with a dispase (5 mg/ml)/collagenase type I (1 mg/ml) enzyme mixture at 37°C for 45 min. After trituration, cells were spun at 300 g and re-suspended in DH10 before being plated on glass coverslips coated with poly-D-lysine (0.5 mg/ml) and laminin (10 μg/ml, Invitrogen). DRGs were cultured with DH10 supplemented with 50 ng/mL NGF at 37°C.
DRG neurons from 3 to 5 week old mice were collected as described. After culture for 1–3 days, DRG neurons were transferred into a chamber with extracellular solution containing (in mM) 144 NaCl, 2.5 KCl, 2 CaCl2, 0.5 MgCl2, 5 HEPES, and 10 glucose, adjusted to pH 7.4 with NaOH. Whole-cell current-clamp recordings were performed at ~23°C using borosilicate capillary glass electrodes (Sutter Instrument) with a tip resistance of 3–5 MΩ. Internal solution contained (in mM) 80 K-acetate, 30 KCl, 40 HEPES, and 1 CaCl2, adjusted to pH 7.4 with potassium hydroxide (KOH). Small-diameter neurons with diameter 15–25 μm were chosen for patch-clamp. Data were acquired using an […] Amplifier and Digidata 1322A Digitizer with pClamp9.2 software package (Axon Instrument). […] Solutions containing 50 mM KCl were applied at the end of each cellular recording. Only neurons that could fire action potentials after adding KCl were regarded as healthy and appropriate for inclusion in data analysis.

[3] = biological target: T1, MRGPRA1 (Mus musculus, UniProt Q91WW5); experiment: [35S]GTPγS binding to MRGPRA1 membrane complexes; format: biochemical; conditions: 50 μM bilirubin
T1 construct: expressed in transfected cells
T1 sequence (Q91WW5 1-304): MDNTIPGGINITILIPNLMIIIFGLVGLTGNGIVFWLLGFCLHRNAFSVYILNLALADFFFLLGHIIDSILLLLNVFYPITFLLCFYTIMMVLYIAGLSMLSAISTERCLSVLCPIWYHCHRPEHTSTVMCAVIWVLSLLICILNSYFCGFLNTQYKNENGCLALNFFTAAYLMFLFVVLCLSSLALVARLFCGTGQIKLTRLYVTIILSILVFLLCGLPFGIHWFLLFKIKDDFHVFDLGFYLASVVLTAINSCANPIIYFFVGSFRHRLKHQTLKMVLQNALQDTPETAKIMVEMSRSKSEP
Method: MRGPR activation was determined by measuring binding of a radiolabelled and non-hydrolyzable form of GTP, [^35S]guanosine-5’-(γ-thio)triphosphate ([^35S]GTPγS) as previously described ([Vasavda et al., 2017]). Briefly, 10 µg of crude membrane fractions were diluted into 175 µL assay buffer (50 mM HEPES, 5 mM MgCl2, 100 mM NaCl, 1 mM EDTA, 0.1% […]) supplemented with 10 µM GDP and incubated at room temperature for 5 min. Membranes were then incubated an additional 1 min in a final volume of 199 μL assay buffer supplemented with 50 μM bilirubin. Samples were then brought to 200 μL with the addition of 10 nM [^35S]GTPγS. Samples were incubated for 2 hr at 4°C with gentle agitation. The experiment was terminated by rapid filtration onto GF/B filters and washed three times with wash buffer (50 mM Tris-HCl, 5 mM MgCl2, and 50 mM NaCl at pH 7.4). Filters were then immersed in scintillation cocktail and counted. Nonspecific binding was determined by competition with 10 μM unlabelled GTPγS. GTPγS binding assays were performed as two independent experiments, in triplicate.

## C=CC1=C(C)/C(=C/c2[nH]c(Cc3[nH]c(/C=C4\NC(=O)C(C)=C4C=C)c(C)c3CCC(=O)O)c(CCC(=O)O)c2C)NC1=O [bilirubin, bilirubin IXα]
[1]
  Mast cell histamine release: did not elicit a calcium response or induce appreciable histamine release
[2]; A1 KO DRG
  Small-diameter neurons in which action potentials were elicited: 0 out of 60
[2]; A1 KO DRG, listed as Bilirubin
  Small-diameter neurons in which action potentials were elicited: 0 of 60
[2]; WT DRG
  Small-diameter neurons in which action potentials were elicited: 5 out of 50
[2]; WT DRG, listed as Bilirubin
  Small-diameter neurons in which action potentials were elicited: 5 of 50
[3]
  GTP binding to MRGPRA1 membrane complexes: increased GTP binding
[3]; MRGPRA1 membrane complexes (Fig 2K)
  [35S]GTPγS binding: 197 and 184 and 159
